Laboratory results taken from patent publication US6492137B1, “Response element compositions and assays employing same” (The Salk Institute for Biological Studies, priority 1989, dated 2002).

Key:
TRβ = molecular target: T1, TRβ (Homo sapiens, UniProt P10828); assay: Gel retardation DNA-binding assay with TRβ-expressing COS cell extracts; set-up: expressed in transfected cells; host or cells: COS cells (whole-cell extract); conditions: gel retardation; TRβ COS cell extract
T1 sequence (P10828 1-461): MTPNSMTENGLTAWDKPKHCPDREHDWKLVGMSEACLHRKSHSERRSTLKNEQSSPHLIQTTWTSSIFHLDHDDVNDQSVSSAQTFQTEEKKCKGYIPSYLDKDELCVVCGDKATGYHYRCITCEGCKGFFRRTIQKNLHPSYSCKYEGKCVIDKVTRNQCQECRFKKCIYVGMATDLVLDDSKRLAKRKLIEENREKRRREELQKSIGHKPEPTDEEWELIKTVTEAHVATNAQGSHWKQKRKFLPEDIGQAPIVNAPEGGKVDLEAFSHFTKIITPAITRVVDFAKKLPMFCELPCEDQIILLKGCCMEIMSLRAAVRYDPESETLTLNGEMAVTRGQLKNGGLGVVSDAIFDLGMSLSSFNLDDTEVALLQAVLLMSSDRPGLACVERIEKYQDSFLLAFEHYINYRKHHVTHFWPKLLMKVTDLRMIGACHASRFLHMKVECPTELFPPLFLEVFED
Experimental: For DNA binding assays, COS cells were cultured in DMEM with 10% calf bovine serum and transfected by the calcium phosphate method with 20 μg of the pCMX receptor expression plasmid for 6 hours followed by a glycerol shock. After incubating the transfected COS cells for another 48 hours, the cells were harvested to prepare extracts for the DNA binding assay, carried out as described by Damm et al., Nature 339: 593-597 (1989). The extracts were made in 20 mM HEPES (pH 7.4), 0.4 M KCl, 2 mM DTT and 20% glycerol. A similar method was employed to prepare a whole cell extract from F9 stem cells. For the binding, 5 μg (COS) or 10 μg (F9) of proteins was incubated on ice for 20 minutes, first in 20 mM HEPES, 80 mM KCl, 1 mM DTT, 0.1% NP40, 2.5 μg of poly dI/dC, and 10% glycerol (cold competitor oligonucleotides, when included, were added during this pre-incubation period). Then 40 fmole of ^32P-labeled oligonucleotide probe (1-2×10^5 cpm, prepared by filling-in reaction using Klenow polymerase in the presence of α-^32P-dCTP) was added to the reaction mixture, followed by incubation at room temperature for 30 minutes. The receptor-DNA complexes were resolved by electrophoresis through 5% polyacrylamide gel containing 5% glycerol at 6 V/cm at room temperature.
Oligonucleotides listed in FIG. 3 were used as a probe to test specific DNA-binding of the RARα and TRβ in a gel retardation assay.
Using the mobility shift assay, the DNA-binding capacity of extracts from COS cells expressing TRβ and RARα to these sequences was also tested.

RARα = molecular target: T2, RARα (Homo sapiens, UniProt P10276); assay: ΔSV-CAT reporter cotransfection assay in CV-1 cells with RARα expression plasmid, ±RA; type: cell-based; set-up: expressed in transfected cells; host or cells: CV-1 (monkey kidney); conditions: RA 1 μM
T2 sequence (P10276 1-462): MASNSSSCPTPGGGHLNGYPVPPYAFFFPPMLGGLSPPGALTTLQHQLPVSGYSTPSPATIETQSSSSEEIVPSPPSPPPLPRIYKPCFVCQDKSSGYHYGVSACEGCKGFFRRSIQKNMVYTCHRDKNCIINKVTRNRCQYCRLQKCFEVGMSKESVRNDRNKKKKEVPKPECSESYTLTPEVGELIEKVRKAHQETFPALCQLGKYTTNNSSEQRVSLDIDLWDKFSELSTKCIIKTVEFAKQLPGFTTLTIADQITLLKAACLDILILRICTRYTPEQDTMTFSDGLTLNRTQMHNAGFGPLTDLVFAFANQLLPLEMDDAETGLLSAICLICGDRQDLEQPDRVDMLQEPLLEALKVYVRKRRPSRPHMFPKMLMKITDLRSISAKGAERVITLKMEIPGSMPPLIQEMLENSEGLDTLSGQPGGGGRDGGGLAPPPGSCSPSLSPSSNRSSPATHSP
Description: Receptor expression plasmids used in the following cotransfection assays have been described previously (pRShTRβ [see Thompson, et al., Proc. Natl. Acad. Sci. U.S.A. 86: 3494-3498 (1989)]; pRShRARα [see Giguere, et al., Nature 330: 624-629 (1987)]; pRShRARβ and pRshRARγ [see Ishikawa, et al., Mol. Endocrinol, 4: 837-844 (1990)]; and pRShVDR, [Schule, et al., Cell 61: 497-504 (1990)]. A basal reporter plasmid ΔSV-CAT was constructed by replacing the TK promoter in TK-CAT [Damm, et al., Nature 339: 593-597 (1989)] with the SphI-HindIII fragment of the SV40 early promoter. All of the recombinant CAT reporter plasmids used herein harbor a single copy of the indicated oligonucleotides at the unique HindIII site upstream of the SV40 promoter. Identity of the inserted oligonucleotides was confirmed by sequencing. To improve production of receptor proteins in COS cells, a new eukaryotic expression vector pCMX was prepared by modifying the plasmid CDM8 [Seed, B., Nature 329: 840-842 (1987)]. The CDM8 was cut with MluI and StuI in order to release the DNA fragment encoding the CMV/T7 promoter, SV40 small t intron/poly A signal, polyoma virus enhancer/origin, and SV40 enhancer/origin. The resulting fragment was ligated to a larger fragment of PvuII-digested PUC19. An internal deletion was introduced between unique BamHI and BclI sites present in the DCM8 portion. The stuffer sequence flanked by XbaI sites was replaced with a synthetic polylinker coding for 5′-KpnI/Asp718-EcoRV-BamHI -MscI-NheI-3′, followed by a stretch of 5′-[…]-3′ (SEQ ID NO:48) which can function as a universal termination signal for protein translation. The coding sequence of the luciferase [de Wet, et al., Mol. Cell. Biol. 7: 725-737 (1987)] and human TRβ, RARα, and VDR was placed in the polylinker region of the pCMX, generating pCMX-LUC, Pcmx-Htrβ, pCMX-hRARα, and pCMX-hVDR, respectively. The translation start site of the RARα was modified to […] by attaching the synthetic linker encoding a consensus translation start signal [Hollenberg, et al., Cell 55: 899-906 (1988)]. […]

RAR = assay: Delta-MTV constructs, RA induction in CV-1 cells with cotransfected RAR expression vector; type: cell-based; conditions: Delta-MTV promoter; with vs without RAR expression vectors
Experimental: Inspection of the sequences of βRE1, βRE2, and βRE3 (see FIG. 2b) identifies a tandem repeat of the 6 bp motif. The center to center separation of 11 bp between these repeats is one turn of the DNA helix. […] Apparently, a single half site element of the RARβ gene would reciprocally be responsive to the TR, ER, and/or other members of the receptor superfamily.
Cells were transfected in 10 cm dishes with 10 μg of DNA containing 5 μg of reporter plasmid, 1-2 μg of either RSV-LUC (a), or RSV-βGAL or pCH110 (c and d), pGEM4 as carrier DNA, and for the experiments shown in a and d, 1 μg of RSV-RAR expression vector or the same amount of an RSV vector generating a nonsense transcript. Cells were harvested 1 day after addition of retinoic acid. All CAT assays represent equivalent amounts of β-galactosidase activity; β-GAL assays were normalized to luciferase activity.

[1] = molecular target: T3, Thyroid hormone receptor beta (TRβ), in CV-1 cells (Homo sapiens, UniProt P10828 P10828:1-461); assay: cell_activity; T3 100 nM, CV-1; conditions: tags: pRShTRβ; label: 32P; 5'-agct overhangs
T3 sequence: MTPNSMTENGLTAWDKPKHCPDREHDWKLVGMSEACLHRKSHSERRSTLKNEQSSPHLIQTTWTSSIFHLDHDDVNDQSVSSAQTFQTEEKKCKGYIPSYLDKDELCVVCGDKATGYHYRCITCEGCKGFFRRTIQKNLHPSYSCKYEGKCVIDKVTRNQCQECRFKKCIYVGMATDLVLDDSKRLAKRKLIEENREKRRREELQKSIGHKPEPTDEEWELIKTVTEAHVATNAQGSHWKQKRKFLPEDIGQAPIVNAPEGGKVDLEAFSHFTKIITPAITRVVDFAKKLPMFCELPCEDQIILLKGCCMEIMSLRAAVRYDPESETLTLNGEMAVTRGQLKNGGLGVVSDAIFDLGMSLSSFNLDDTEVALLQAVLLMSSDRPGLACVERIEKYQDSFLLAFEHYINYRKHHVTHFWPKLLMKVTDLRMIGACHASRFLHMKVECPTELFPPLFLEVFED
Experimental: (§1) For cotransfection assays, a monkey kidney cell line CV-1 was kept in Dulbecco's modified Eagle's medium (DMEM) supplemented with 10% charcoal-resin double split calf bovine serum. Transfections were performed via calcium-phosphate precipitation method as described by Umesono, et al. in Cell 57: 1139–1146 (1989), with 0.5 μg of a pRS receptor expression plasmid, 1.0 μg of a reporter CAT plasmid, 5 μg of pRAS-βGAL [Umesono, et al., Cell 57: 1139–1146 (1989)] as an internal control, and 8.5 μg of carrier plasmid pUC19. The cells were transfected for 8 hours; after washing the DNA precipitates, the cells were then incubated for an additional 36 hours with or without the ligand (T_3, 100 nM; RA, 1 μM; 1,25-(OH)_2 vitamin D_3, 100 nM). Cell extracts were prepared for βGAL and CAT assays, as described by Umesono, et al., supra. Transfection of F9 teratocarcinoma cells was carried out employing a similar method except the cells were incubated for 12 hours in the presence of the DNA precipitates, and the RA was added at 1 μM for another 24 hours before harvesting the cells. 2, 5, and 4 μg of the reporter, pRAS-βGAL, and pUC19 were used, respectively.
(§2) The above strategies were used to test both in vivo transactivation and in vitro DNA-binding of these artificial HREs for TRβ, RARα, and VDR. […]

[2] = molecular target: T4, Vitamin D receptor (VDR), in CV-1 cells (Homo sapiens, UniProt P11473 P11473:1-427); assay: cell_activity; vitamin D3 100 nM, CV-1; conditions: tags: pRShVDR; label: 32P; 5'-agct overhangs
T4 sequence: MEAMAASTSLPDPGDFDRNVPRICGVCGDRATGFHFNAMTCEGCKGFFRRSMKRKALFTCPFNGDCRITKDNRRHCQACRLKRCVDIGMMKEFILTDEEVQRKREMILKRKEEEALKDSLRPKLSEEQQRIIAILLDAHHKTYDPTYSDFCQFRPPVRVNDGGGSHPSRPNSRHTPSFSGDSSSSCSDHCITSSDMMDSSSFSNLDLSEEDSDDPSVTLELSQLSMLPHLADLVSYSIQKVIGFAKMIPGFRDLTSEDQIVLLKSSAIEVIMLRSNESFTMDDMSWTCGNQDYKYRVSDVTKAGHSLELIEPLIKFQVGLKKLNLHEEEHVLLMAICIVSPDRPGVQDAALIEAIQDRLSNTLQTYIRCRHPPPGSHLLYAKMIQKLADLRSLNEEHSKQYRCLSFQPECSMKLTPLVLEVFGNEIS
Experimental: as §1, §2

DR-4: perfect tandem repeat of AGGTCA hexamers separated by 4 nucleotides (SEQ ID NO:27) (AGCTTCAGGTCACAGGAGGTCAGAGAGCT; DNA, backbone not given here; double-stranded DNA response element with agct overhangs, cloned into reporter)
TRβ binding to labeled oligonucleotide probe (TRβ): specific protein-DNA complex
RA response (in words) (RARα): clear activity

βRE4: construct containing a single copy of either the 5′- or 3′- half site (SEQ ID NO:8) (AAGCTTCGAAAGTTCACTCGCATAGCTT; listed as DNA, chemistry not given here)
function of single half-site constructs (RAR): functional only upon cotransfection of RAR expression vectors

βRE5: construct containing a single copy of either the 5′- or 3′- half site (SEQ ID NO:9) (AAGCTTAAGGGTTCACCGAGCTT; listed as DNA, chemistry not given here)
function of single half-site constructs (RAR): functional only upon cotransfection of RAR expression vectors

B1: DR-4 (dsDNA)
DNA 1: AGCTTCAGGTCACAGGAGGTCAGAGAGCT
DNA 2: AGCTCTCTGACCTCCTGTGACCTGAAGCT
activity [1]: 22 fold induction

B2: DR-3 (dsDNA)
DNA 1: AGCTTCAGGTCAAGGAGGTCAGAGAGCT
DNA 2: AGCTCTCTGACCTCCTTGACCTGAAGCT
activity [2]: 8.3 fold induction
